Measured values published in patent publication US20240207263A1, “SELECTIVE MODULATORS OF ATAXIA TELA[…] (ATM) KINASE AND USES THEREOF” (priority 2021, published 2024).

Each compound was assayed against ATM (Homo sapiens (Human), UniProt Q13315) (assay: biochemical). Settings: not given.
Assay type: biochemical
Text: Assay a): ATM Biochemical Potency
Data was collected by Caliper.

ATM, sequence (Q13315 whole entry, looked up): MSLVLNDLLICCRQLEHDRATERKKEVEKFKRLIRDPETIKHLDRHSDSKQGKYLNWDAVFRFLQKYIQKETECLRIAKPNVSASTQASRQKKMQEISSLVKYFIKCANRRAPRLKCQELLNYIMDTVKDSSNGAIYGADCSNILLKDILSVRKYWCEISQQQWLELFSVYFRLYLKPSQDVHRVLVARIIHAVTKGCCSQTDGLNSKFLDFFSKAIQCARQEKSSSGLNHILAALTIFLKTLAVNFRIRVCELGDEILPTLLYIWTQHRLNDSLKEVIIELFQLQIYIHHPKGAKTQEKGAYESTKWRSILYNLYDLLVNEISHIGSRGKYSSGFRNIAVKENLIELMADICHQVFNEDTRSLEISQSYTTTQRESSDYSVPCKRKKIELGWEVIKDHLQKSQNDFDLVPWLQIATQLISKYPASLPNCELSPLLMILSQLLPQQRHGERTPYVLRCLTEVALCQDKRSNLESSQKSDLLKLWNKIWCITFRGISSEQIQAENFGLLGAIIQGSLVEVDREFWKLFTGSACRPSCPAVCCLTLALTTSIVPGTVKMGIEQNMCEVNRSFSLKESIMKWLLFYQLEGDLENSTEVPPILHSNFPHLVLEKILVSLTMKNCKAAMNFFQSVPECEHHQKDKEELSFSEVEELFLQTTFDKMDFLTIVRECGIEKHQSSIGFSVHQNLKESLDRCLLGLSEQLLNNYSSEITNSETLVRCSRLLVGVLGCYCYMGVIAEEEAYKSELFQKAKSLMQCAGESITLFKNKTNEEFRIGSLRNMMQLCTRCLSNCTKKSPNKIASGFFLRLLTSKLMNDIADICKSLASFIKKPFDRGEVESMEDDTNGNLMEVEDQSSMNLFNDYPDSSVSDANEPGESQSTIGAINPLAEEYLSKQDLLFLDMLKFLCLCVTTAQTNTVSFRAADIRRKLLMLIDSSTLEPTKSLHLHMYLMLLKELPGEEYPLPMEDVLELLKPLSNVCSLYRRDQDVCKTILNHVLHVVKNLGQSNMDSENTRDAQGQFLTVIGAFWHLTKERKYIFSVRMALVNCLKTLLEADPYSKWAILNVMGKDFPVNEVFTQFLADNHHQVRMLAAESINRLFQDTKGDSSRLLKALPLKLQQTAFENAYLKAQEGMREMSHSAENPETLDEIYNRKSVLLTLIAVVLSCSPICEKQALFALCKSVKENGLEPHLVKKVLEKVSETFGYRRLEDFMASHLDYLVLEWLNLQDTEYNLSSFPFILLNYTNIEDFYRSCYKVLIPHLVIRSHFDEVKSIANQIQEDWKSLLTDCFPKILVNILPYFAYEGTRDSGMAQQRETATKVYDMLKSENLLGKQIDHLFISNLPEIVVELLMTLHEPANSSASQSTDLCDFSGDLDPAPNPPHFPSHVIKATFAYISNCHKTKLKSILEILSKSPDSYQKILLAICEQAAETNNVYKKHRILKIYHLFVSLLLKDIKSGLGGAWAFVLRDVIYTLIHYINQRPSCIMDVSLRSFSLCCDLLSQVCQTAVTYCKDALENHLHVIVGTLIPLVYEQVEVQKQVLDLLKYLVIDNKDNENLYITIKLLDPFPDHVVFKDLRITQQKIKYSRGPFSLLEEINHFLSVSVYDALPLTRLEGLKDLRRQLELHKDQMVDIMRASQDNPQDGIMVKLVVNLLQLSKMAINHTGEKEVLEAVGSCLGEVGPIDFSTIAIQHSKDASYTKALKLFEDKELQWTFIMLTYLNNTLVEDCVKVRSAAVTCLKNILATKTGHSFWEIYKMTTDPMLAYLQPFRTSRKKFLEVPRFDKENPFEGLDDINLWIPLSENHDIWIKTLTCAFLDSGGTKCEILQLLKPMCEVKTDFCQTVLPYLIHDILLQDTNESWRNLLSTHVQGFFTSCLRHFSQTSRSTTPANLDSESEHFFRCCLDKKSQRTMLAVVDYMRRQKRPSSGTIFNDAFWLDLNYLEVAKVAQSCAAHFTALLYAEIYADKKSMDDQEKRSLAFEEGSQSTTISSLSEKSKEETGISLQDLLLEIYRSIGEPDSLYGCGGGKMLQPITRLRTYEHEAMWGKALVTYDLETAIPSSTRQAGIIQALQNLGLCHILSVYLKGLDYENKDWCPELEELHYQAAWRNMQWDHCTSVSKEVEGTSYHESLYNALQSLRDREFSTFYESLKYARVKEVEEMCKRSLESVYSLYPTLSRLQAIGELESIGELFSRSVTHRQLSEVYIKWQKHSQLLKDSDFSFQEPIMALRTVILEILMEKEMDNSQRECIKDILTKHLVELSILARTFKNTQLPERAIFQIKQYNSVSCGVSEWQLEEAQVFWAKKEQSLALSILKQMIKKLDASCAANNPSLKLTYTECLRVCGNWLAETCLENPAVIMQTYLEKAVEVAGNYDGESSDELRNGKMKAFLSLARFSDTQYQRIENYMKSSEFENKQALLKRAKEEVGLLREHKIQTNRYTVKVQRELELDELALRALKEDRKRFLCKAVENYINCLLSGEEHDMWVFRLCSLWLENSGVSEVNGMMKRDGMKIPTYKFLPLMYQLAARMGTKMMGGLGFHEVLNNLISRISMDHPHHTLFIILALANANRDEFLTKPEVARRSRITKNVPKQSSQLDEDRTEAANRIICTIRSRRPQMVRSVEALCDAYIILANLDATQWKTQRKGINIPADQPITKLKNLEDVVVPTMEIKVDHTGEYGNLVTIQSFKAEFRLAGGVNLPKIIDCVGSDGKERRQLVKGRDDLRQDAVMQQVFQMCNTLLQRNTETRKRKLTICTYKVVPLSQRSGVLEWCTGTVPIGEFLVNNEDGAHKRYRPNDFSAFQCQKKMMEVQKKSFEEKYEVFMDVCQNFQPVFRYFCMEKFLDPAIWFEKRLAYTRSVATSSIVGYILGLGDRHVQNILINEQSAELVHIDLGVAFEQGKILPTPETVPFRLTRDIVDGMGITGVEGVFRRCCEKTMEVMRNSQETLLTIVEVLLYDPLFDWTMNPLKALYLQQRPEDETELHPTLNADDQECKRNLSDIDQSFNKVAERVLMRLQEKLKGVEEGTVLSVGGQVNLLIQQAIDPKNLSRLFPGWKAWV

Row | Structure (SMILES) | IC50 [nM]
1 | CO[C@H]1C[C@H](n2c(=O)n(C)c3nnc4ccc(-c5ccc(COCCN6CCC7(CC7)C6)nc5)cc4c32)C1 [Example 159, 8-(6-((2-(5-azaspiro[2.4]heptan-5-yl)ethoxy)methyl)pyridin-3-yl)-1-(trans-3-methoxycyclobutyl)-3-methyl-1H-imidazo[4,5-c]cinnolin-2(3H)-one] | 20.6

Same assay, conditions: read-out: ATM IC50

Row | Structure (SMILES) | IC50 [nM]
2 | CC(C)n1c(=O)n(C)c2nnc3ccc(-c4ccc([C@@H](C)OCCN5CC[C@H](C)C5)nc4)cc3c21 [Example 78, 1-isopropyl-3-methyl-8-(6-((R)-1-(2-((S)-3-methylpyrrolidin-1-yl)ethoxy)ethyl)pyridin-3-yl)-1H-imidazo[4,5-c]cinnolin-2(3H)-one] | 6.4
3 | CC(C)n1c(=O)n(C)c2nnc3ccc(-c4ccc(COCC5CCCN5C)nc4)cc3c21 (centres unmarked) [Example 10, 1-isopropyl-3-methyl-8-(6-(((1-methylpyrrolidin-2-yl)methoxy)methyl)pyridin-3-yl)-1H-imidazo[4,5-c]cinnolin-2(3H)-one] | 105
4 | CC(COCc1ccc(-c2ccc3nnc4c(c3c2)n(C(C)C)c(=O)n4C)cn1)N1CC2CC2C1 (centres unmarked) [Example 16, 8-(6-((2-(3-azabicyclo[3.1.0]hexan-3-yl)propoxy)methyl)pyridin-3-yl)-1-isopropyl-3-methyl-1H-imidazo[4,5-c]cinnolin-2(3H)-one] | 201
5 | C[C@@H](OCCN1CC[C@@H](OC2CC2)C1)c1ccc(-c2ccc3nnc4c(c3c2)n(C2CCOCC2)c(=O)n4C)cn1 [Example 122, 8-(6-((R)-1-(2-((R)-3-cyclopropoxypyrrolidin-1-yl)ethoxy)ethyl)pyridin-3-yl)-3-methyl-1-(tetrahydro-2H-pyran-4-yl)-1H-imidazo[4,5-c]cinnolin-2(3H)-one] | 4.3
6 | CO[C@H]1C[C@H](n2c(=O)n(C)c3nnc4ccc(-c5ccc([C@@H](C)OCCN6CCC7(CC6)CC7)nc5)cc4c32)C1 [Example 164, 8-(6-((R)-1-(2-(6-azaspiro[2.5]octan-6-yl)ethoxy)ethyl)pyridin-3-yl)-1-(trans-3-methoxycyclobutyl)-3-methyl-1H-imidazo[4,5-c]cinnolin-2(3H)-one] | 2.2
7 | CC(C)n1c(=O)n(C)c2nnc3ccc(-c4ccc(COCCN5[C@H](C)CC[C@@H]5C)nc4)cc3c21 [Example 45, 8-(6-((2-((2R,5S)-2,5-dimethylpyrrolidin-1-yl)ethoxy)methyl)pyridin-3-yl)-1-isopropyl-3-methyl-1H-imidazo[4,5-c]cinnolin-2(3H)-one] | 84
8 | CC(C)n1c(=O)n(C)c2nnc3ccc(-c4ccc(COCCN5CCCC5)nc4)cc3c21 [Example 4, 1-isopropyl-3-methyl-8-(6-((2-(pyrrolidin-1-yl)ethoxy)methyl)pyridin-3-yl)-1H-imidazo[4,5-c]cinnolin-2(3H)-one] | 63
9 | CC(C)O[C@@H]1CCN(CCO[C@H](C)c2ccc(-c3ccc4nnc5c(c4c3)n(C3CCOCC3)c(=O)n5C)cn2)C1 [Example 113, 8-(6-((R)-1-(2-((R)-3-isopropoxypyrrolidin-1-yl)ethoxy)ethyl)pyridin-3-yl)-3-methyl-1-(tetrahydro-2H-pyran-4-yl)-1H-imidazo[4,5-c]cinnolin-2(3H)-one] | 7.5
10 | CC(C)n1c(=O)n(C)c2nnc3ccc(-c4ccc(COCCN5CC[C@@H](N(C)C)C5)nc4)cc3c21 [Example 46, (R)-8-(6-((2-(3-(dimethylamino)pyrrolidin-1-yl)ethoxy)methyl)pyridin-3-yl)-1-isopropyl-3-methyl-1H-imidazo[4,5-c]cinnolin-2(3H)-one] | 76
11 | C[C@@H](OCCN1CCC2(CCO2)CC1)c1ccc(-c2ccc3nnc4c(c3c2)n(C2CCOCC2)c(=O)n4C)cn1 [Example 125, (R)-8-(6-(1-(2-(1-oxa-7-azaspiro[3.5]nonan-7-yl)ethoxy)ethyl)pyridin-3-yl)-3-methyl-1-(tetrahydro-2H-pyran-4-yl)-1H-imidazo[4,5-c]cinnolin-2(3H)-one] | 6.3
12 | CC(C)n1c(=O)n(C)c2nnc3ccc(-c4ccc(COCCN5CC[C@H](OC(F)F)C5)nc4)cc3c21 [Example 51, (S)-8-(6-((2-(3-(difluoromethoxy)pyrrolidin-1-yl)ethoxy)methyl)pyridin-3-yl)-1-isopropyl-3-methyl-1H-imidazo[4,5-c]cinnolin-2(3H)-one] | 7.6
13 | CC(C)n1c(=O)n(C)c2nnc3ccc(-c4ccc(COCCN5CCN(C)CC5)nc4)cc3c21 [Example 32, 1-isopropyl-3-methyl-8-(6-((2-(4-methylpiperazin-1-yl)ethoxy)methyl)pyridin-3-yl)-1H-imidazo[4,5-c]cinnolin-2(3H)-one] | 304
14 | CC(C)n1c(=O)n(C)c2nnc3ccc(-c4ccc(COCCN5CC(N(C)C)C5)nc4)cc3c21 [Example 37, 8-(6-((2-(3-(dimethylamino)azetidin-1-yl)ethoxy)methyl)pyridin-3-yl)-1-isopropyl-3-methyl-1H-imidazo[4,5-c]cinnolin-2(3H)-one] | 78
15 | CO[C@H]1C[C@@H](n2c(=O)n(C)c3nnc4ccc(-c5ccc(COCCN6CCCC6)nc5)cc4c32)C1 [Example 172, 1-(cis-3-methoxycyclobutyl)-3-methyl-8-(6-((2-(pyrrolidin-1-yl)ethoxy)methyl)pyridin-3-yl)-1H-imidazo[4,5-c]cinnolin-2(3H)-one] | 21
16 | Cn1c(=O)n(C2CCOCC2)c2c3cc(-c4ccc(COCCN5CCC(C)(C)CC5)nc4)ccc3nnc21 [Example 96, 8-(6-((2-(4,4-dimethylpiperidin-1-yl)ethoxy)methyl)pyridin-3-yl)-3-methyl-1-(tetrahydro-2H-pyran-4-yl)-1H-imidazo[4,5-c]cinnolin-2(3H)-one] | 17
17 | CC(C)n1c(=O)n(C)c2nnc3ccc(-c4ccc(COCCCN(C)C)nc4)cc3c21 [Example 8, 8-(6-((3-(dimethylamino)propoxy)methyl)pyridin-3-yl)-1-isopropyl-3-methyl-1H-imidazo[4,5-c]cinnolin-2(3H)-one] | 98
18 | CC(C)n1c(=O)n(C)c2nnc3ccc(-c4ccc(COCCN5CC[C@H](N(C)C)C5)nc4)cc3c21 [Example 42, (S)-8-(6-((2-(3-(dimethylamino)pyrrolidin-1-yl)ethoxy)methyl)pyridin-3-yl)-1-isopropyl-3-methyl-1H-imidazo[4,5-c]cinnolin-2(3H)-one] | 44
19 | CC(C)n1c(=O)n(C)c2nnc3ccc(-c4ccc(COCCN5CCC(C#N)CC5)nc4)cc3c21 [Example 24, 1-(2-((5-(1-isopropyl-3-methyl-2-oxo-2,3-dihydro-1H-imidazo[4,5-c]cinnolin-8-yl)pyridin-2-yl)methoxy)ethyl)pyiperidine-4-carbonitrile] | 26
20 | C[C@@H](OCCN1CC[C@@H](OC(F)F)C1)c1ccc(-c2cc3c(cc2F)nnc2c3n(C3CCOCC3)c(=O)n2C)cn1 [Example 155, 8-(6-((R)-1-(2-((R)-3-(difluoromethoxy)pyrrolidin-1-yl)ethoxy)ethyl)pyridin-3-yl)-7-fluoro-3-methyl-1-(tetrahydro-2H-pyran-4-yl)-1H-imidazo[4,5-c]cinnolin-2(3H)-one] | 11
21 | CO[C@H]1C[C@H](n2c(=O)n(C)c3nnc4ccc(-c5ccc(COCCN(C)C)nc5)cc4c32)C1 [Example 165, 8-(6-((2-(dimethylamino)ethoxy)methyl)pyridin-3-yl)-1-(trans-3-methoxycyclobutyl)-3-methyl-1H-imidazo[4,5-c]cinnolin-2(3H)-one] | 101
22 | CC(C)O[C@@H]1CCN(CCO[C@H](C)c2ccc(-c3ccc4nnc5c(c4c3)n(C(C)C)c(=O)n5C)cn2)C1 [Example 93, 8-(6-((R)-1-(2-((R)-3-isopropoxypyrrolidin-1-yl)ethoxy)ethyl)pyridin-3-yl)-1-isopropyl-3-methyl-1H-imidazo[4,5-c]cinnolin-2(3H)-one] | 4.9
23 | Cn1c(=O)n(C2CCOCC2)c2c3cc(-c4ccc(COCCN5CCC(F)CC5)nc4)ccc3nnc21 [Example 95, 8-(6-((2-(4-fluoropiperidin-1-yl)ethoxy)methyl)pyridin-3-yl)-3-methyl-1-(tetrahydro-2H-pyran-4-yl)-1H-imidazo[4,5-c]cinnolin-2(3H)-one] | 47
24 | Cn1c(=O)n(C2CCOCC2)c2c3cc(-c4ccc(COCCN5CC[C@@H](OC(F)F)C5)nc4)ccc3nnc21 [Example 99, (R)-8-(6-((2-(3-(difluoromethoxy)pyrrolidin-1-yl)ethoxy)methyl)pyridin-3-yl)-3-methyl-1-(tetrahydro-2H-pyran-4-yl)-1H-imidazo[4,5-c]cinnolin-2(3H)-one] | 40
25 | CC(C)n1c(=O)n(C)c2nnc3ccc(-c4ccc(COCCN5CC[C@@H](OC(F)F)C5)nc4)cc3c21 [Example 50, (R)-8-(6-((2-(3-(difluoromethoxy)pyrrolidin-1-yl)ethoxy)methyl)pyridin-3-yl)-1-isopropyl-3-methyl-1H-imidazo[4,5-c]cinnolin-2(3H)-one] | 11
26 | CC(C)n1c(=O)n(C)c2nnc3ccc(-c4ccc(COCCN5CCC6(CC6)C5)nc4)cc3c21 [Example 26, 8-(6-((2-(5-azaspiro[2.4]heptan-5-yl)ethoxy)methyl)pyridin-3-yl)-1-isopropyl-3-methyl-1H-imidazo[4,5-c]cinnolin-2(3H)-one] | 14
27 | COC1CCN(CCOCc2ccc(-c3ccc4nnc5c(c4c3)n(C(C)C)c(=O)n5C)cn2)CC1 [Example 44, 1-isopropyl-8-(6-((2-(4-methoxypiperidin-1-yl)ethoxy)methyl)pyridin-3-yl)-3-methyl-1H-imidazo[4,5-c]cinnolin-2(3H)-one] | 12
28 | CO[C@@H]1CCN(CCO[C@H](C)c2ccc(-c3ccc4nnc5c(c4c3)n([C@H]3C[C@H](OC)C3)c(=O)n5C)cn2)C1 [Example 163, 1-(trans-3-methoxycyclobutyl)-8-(6-((R)-1-(2-((R)-3-methoxypyrrolidin-1-yl)ethoxy)ethyl)pyridin-3-yl)-3-methyl-1H-imidazo[4,5-c]cinnolin-2(3H)-one] | 7.9
29 | CC(C)n1c(=O)n(C)c2nnc3ccc(-c4ccc([C@@H](C)OCCN5CC6CC6C5)nc4)cc3c21 (stereo partly drawn) [Example 66, 8-(6-((1R)-1-(2-(3-azabicyclo[3.1.0]hexan-3-yl)ethoxy)ethyl)pyridin-3-yl)-1-isopropyl-3-methyl-1H-imidazo[4,5-c]cinnolin-2(3H)-one] | 10
